Common to all, as to format: binding
For experiment [1], the target named is T1, IctP (PA0884) (Pseudomonas aeruginosa, UniProt Q9I561).
T1 construct: SBP domain (pa0884), recombinant from E. coli
The experiment is described as follows: intrinsic tryptophan fluorescence titration.

Experiment [2] deals with T1, IctP (PA0884). Description: crystal structure ([…] Å); intrinsic tryptophan fluorescence titration; nanoDSF (~[…] °C shift). In general terms: In DSF a fluorescence change marks the thermal transition of the protein.
Experiment [3] concerns the target T1, IctP (PA0884). Described as above. The source holds these as a separate data set.

The values that follow come from article PMC12599236, “Itaconate utilisation by the human pathogen Pseudomonas aeruginosa requires uptake via the IctPQM TRAP transporter” (Biochemical Journal, 2025).

One may read the Kd as a measure of binding affinity in units of concentration.

T1 sequence (Q9I561 entry or part of it): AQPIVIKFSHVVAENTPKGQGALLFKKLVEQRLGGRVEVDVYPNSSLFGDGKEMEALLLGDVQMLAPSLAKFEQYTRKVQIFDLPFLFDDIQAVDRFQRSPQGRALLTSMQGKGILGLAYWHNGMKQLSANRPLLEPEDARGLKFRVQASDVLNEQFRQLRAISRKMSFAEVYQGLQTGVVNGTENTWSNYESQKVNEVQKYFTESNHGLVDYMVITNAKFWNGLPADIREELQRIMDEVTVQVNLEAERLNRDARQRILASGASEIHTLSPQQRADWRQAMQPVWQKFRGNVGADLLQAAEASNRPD

As to `O=C(O)C[C@H](O)C(=O)O` [L-malate], the Kd at IctP (PA0884) [1] is 16.2 µM.

Regarding `C=C(CC(=O)O)C(=O)O` [itaconate, 2-methylenesuccinate], the Kd on IctP (PA0884) [2] amounted to 180 µM.

`O=C(O)CCC(=O)O` [succinate]: at IctP (PA0884) [3], the Kd was 32.6 µM.
